From patent US20230279072A1, “REGULATORY T CELL EPITOPES” (EpiVax Inc., priority 2020, published 2023)
Entries after “also recorded” stand apart in the source; their conditions may differ.

Key:
[1] = test system: PBMCs; format: cell-based, human
Description: For the T reg assays, PBMCs were thawed according standard procedure, labeled with carboxyfluorescein succinimidyl ester (CFSE), and rested overnight in 96 well culture plate prior to use in in vitro assays. To evaluate the dose response of FV621 on the viability, cells were incubated with FV621 for 2, 3, 5 and 7 days in culture and live cells evaluated by flow cytometry using a live-dead viability dye and by counting in a cellometer (Nexcelom) using trypan blue exclusion. […]
To rule out the possibility that the effect of FV621 was related to toxic effects of the peptide, which might simulate a suppressive effect in vitro, we evaluated the viability of cells in culture with FV621 using two different methods. Cells were cultured in the presence of FV621 in a 96 well plate for 2, 3, 5 and 7 days after which cells were collected and stained with live-dead viability dye and analyzed by flow cytometry (data not shown) and by trypan blue exclusion and counting with a cellometer (Nexcelom). The absolute number of live cells that was counted at days 2, 3, 5 and 7 after stimulation with different doses of FV621 Tregitope was similar by flow cytometry.

[2] = test system: panel of five common Class II HLA alleles: HLA-DRB1*0101, HLA-DRB1*0301, HLA-DRB1*0701, HLA-DRB1*1101, and HLA-DRB1*1501; assay: Soluble HLA competition binding assay, panel of five alleles; set-up: species or system human
Description: HLA Binding Assay. Binding activity was analyzed atEpiVax (Providence, R.I.). The binding assay used (Steere A C et al., (2006), J Exp Med, 2003(4):961-71) yielded an indirect measure of peptide-MHC affinity. Soluble HLA molecules were loaded onto a 96-well plate with the unlabeled experimental Tregitopes and labeled control peptide. Once the binding mixture reached steady equilibrium (at 24 hours), the HLA-Tregitope complexes were captured on an ELISA plate coated with anti-human DR antibody and detected with a Europium-linked probe for the label (PerkinElmer, Waltham, Mass.). Time-resolved fluorescence measuring bound labeled control peptide is assessed by a SpectraMax® M5 unit (Spectramax, Radnor, Pa.). Binding of experimental Tregitopes was expressed as the percent inhibition of the labeled control peptide (experimental fluorescence/control fluorescence multiplied by 100). […]
CD4+ effector memory T cells contained within PBMC cell populations can be induced to proliferate in response to stimulation with known T cell epitopes. […] Binding of experimental Tregitopes is expressed as the percent inhibition of the labeled control peptide (experimental fluorescence/control fluorescence multiplied by 100). […]

[3] = test system: HLA-DRB1*0101, *0301, *0401, *0701, *1101, *1301 and *1501 alleles; assay: In vitro HLA DRB1 binding assay, panel of seven alleles; set-up: species or system human; settings: for breadth of binding to HLA DRB1 alleles: seven alleles
Description: The six FV peptides were tested for in vitro binding to HLA-DRB1*0101, *0301, *0401, *0701, *1101, *1301 and *1501 alleles.

[4] = test system: CD4+ T cells in PBMCs from healthy donors; assay: Tetanus Toxoid Bystander Suppression Assay (TTBSA); format: cell-based, human; settings: for inhibition of the CD4+ T memory response / T effector proliferation in the TTBSA: PBMC from three HLA-diverse donors
[5] = test system: CD4+ effector memory T cells; assay: Suppression of Tetanus Toxoid stimulated CD4+ effector T cells in PBMC; format: cell-based, human; set-up: CD4+ T cell activation reduced by: dose or concentration left out as unconfirmed
Description: Previously harvested and frozen PBMC were thawed and suspended in conditioned chRPMI (3.3×10^6 cells/mL) by conventional means. Cells were stained with CFSE (Cat #: 65-0850-84, Affymetrix, Santa Clara, Calif.) and plated at 300,000 cells per well. Plates were incubated overnight (37° C. in 5% CO2). […] Previous titration experiments performed at EpiVax (EpiVax, Providence, R.I.) have established that stimulation with 0.5 μg/ml Tetanus Toxoid (TT) (Astarte Biologics, Bothell, Wash.) elicits a measurable CD4+ effector memory T cells response in PBMC drawn from healthy control donors (Rhode Island Blood Center, Providence, R.I.). Tetanus Toxoid stock (100 μg/mL) (Astarte Biologics, Bothell, Wash.) was diluted in conditioned chRPMI yielding a working concentration of 1 ug/mL. […] All plates were then incubated for six additional days. On assay day five, 100 μL of supernatant was removed from each well and replaced with freshly conditioned chRPMI.
On assay day seven, cells were removed from incubation. Cells were labeled for live/dead discrimination, for surface markers CD127, CCR7, CD4, CD45RA, and CD25 and for intracellular FoxP3. Stained cells were further prepared for FACS analysis by conventional means. Cells were first gated to eliminate aggregates and dead cells. Live cells were gated for CD4 T cells and all subsequent analysis was done on this population. The activated Teffector population was identified as the CD4+/CD25-high/FoxP3-intermediate (CD4+/CD25^1/FoxP3int) (FIG. 8A).
Proliferation of CD4+/CD25-high (CD4^+/CD25^hi) T cells was estimated from the dilution of the CFSE stain (Cat #: 65-0850-84, Affymetrix, Santa Clara, Calif.) and % proliferation determined by the CFSE-low (CFSEL^lo) population (FIG. 8B).

CC[C@H](C)[C@H](NC(C)=O)C(=O)N[C@@H](CC(C)C)C(=O)N[C@H](C(=O)N[C@H](C(=O)N[C@@H](Cc1c[nH]cn1)C(=O)N[C@@H](Cc1ccccc1)C(=O)N[C@H](C(=O)NCC(=O)N[C@@H](Cc1c[nH]cn1)C(=O)N[C@@H](CO)C(=O)N[C@@H](Cc1ccccc1)C(=O)N[C@H](C(=O)N[C@@H](Cc1ccc(O)cc1)C(=O)NCC(=O)N[C@@H](CCCCN)C(N)=O)[C@@H](C)CC)[C@@H](C)O)[C@@H](C)CC)[C@@H](C)O [SEQ ID NO: 1]
absolute number of live cells by flow cytometry ([1]; days 2, 3, 5 and 7, different doses): similar
decreased viability by trypan blue exclusion ([1]; highest dose): 10-15%

CC(=O)N[C@@H](Cc1ccccc1)C(=O)N[C@@H](C)C(=O)N[C@H](C(=O)N[C@@H](Cc1ccccc1)C(=O)N[C@@H](CC(=O)O)C(=O)N[C@@H](CCC(=O)O)C(=O)N[C@@H](CC(N)=O)C(=O)N[C@@H](CCCCN)C(=O)N[C@@H](CO)C(=O)N[C@@H](Cc1c[nH]c2ccccc12)C(=O)N[C@@H](Cc1ccc(O)cc1)C(=O)N[C@@H](CC(C)C)C(=O)N[C@@H](CCC(=O)O)C(=O)N[C@@H](CC(=O)O)C(=O)N[C@@H](CC(N)=O)C(N)=O)C(C)C [SEQ ID NO: 4]
HLA binding profile [2]: highly-restricted HLA binding profiles
breadth of binding to HLA DRB1 alleles ([3]; listed as FV548): somewhat more restricted in the breadth of binding; also recorded: more limited binding to HLA DR
inhibition of the CD4+ T memory response / T effector proliferation in the TTBSA [4]: did not inhibit

CC[C@H](C)[C@H](NC(=O)[C@H](CC(N)=O)NC(=O)[C@H](CO)NC(=O)[C@H](CCC(=O)O)NC(C)=O)C(=O)N[C@@H](CCSC)C(=O)N[C@@H](CO)C(=O)N[C@H](C(=O)N[C@H](C(=O)N[C@@H](CC(N)=O)C(=O)NCC(=O)N[C@@H](Cc1ccc(O)cc1)C(=O)N[C@H](C(=O)N1CCC[C@H]1C(=O)N[C@@H](CCC(=O)O)C(=O)N[C@@H](CO)C(N)=O)C(C)C)[C@@H](C)CC)[C@@H](C)O [SEQ ID NO: 5]
breadth of binding to HLA DRB1 alleles ([3]; listed as FV582): somewhat more restricted in the breadth of binding; also recorded: more limited binding to HLA DR
inhibition of the CD4+ T memory response / T effector proliferation in the TTBSA [4]: did not inhibit

CC[C@H](C)[C@H](NC(=O)[C@H](CC(C)C)NC(=O)[C@H](CC(C)C)NC(=O)[C@@H]1CCCN1C(=O)CNC(=O)[C@@H](NC(=O)[C@H](CC(C)C)NC(=O)CNC(=O)[C@H](CO)NC(=O)[C@H](Cc1c[nH]cn1)NC(=O)[C@@H](NC(=O)[C@H](CC(=O)O)NC(=O)[C@H](CCCCN)NC(=O)[C@H](CCC(=O)O)NC(C)=O)[C@@H](C)CC)[C@@H](C)CC)C(N)=O [SEQ ID NO: 6]
HLA binding profile [2]: highly-restricted HLA binding profiles
breadth of binding to HLA DRB1 alleles ([3]; listed as FV1737): somewhat more restricted in the breadth of binding; also recorded: more limited binding to HLA DR
inhibition of the CD4+ T memory response / T effector proliferation in the TTBSA [4]: did not inhibit

CC[C@H](C)[C@H](NC(=O)[C@H](C)NC(=O)[C@H](Cc1c[nH]cn1)NC(=O)[C@H](Cc1ccccc1)NC(=O)[C@H](CCC(=O)O)NC(=O)[C@H](Cc1c[nH]cn1)NC(=O)[C@H](CO)NC(C)=O)C(=O)N[C@@H](CC(N)=O)C(=O)NCC(=O)N[C@@H](CCSC)C(=O)N[C@H](C(=O)N[C@@H](Cc1ccc(O)cc1)C(=O)N[C@@H](CO)C(=O)N[C@@H](CC(C)C)C(=O)N1CCC[C@H]1C(N)=O)[C@@H](C)CC [SEQ ID NO: 7]
breadth of binding to HLA DRB1 alleles [3]: bind to multiple HLA DRB1 alleles
inhibition of the CD4+ T memory response / T effector proliferation in the TTBSA [4]: did not inhibit

G628H: FV621 with point mutation at TCR facing position G628H (glycine changed to histidine) (ILTIHFTHHSFIYGK)
binding affinity to HLA DR alleles (in words) ([3]; across the alleles tested): identical to FV621
suppressive capacity on TT-induced memory CD4 T cell proliferation relative to FV621 ([4]; point-mutated FV621 peptides, data not shown): significantly diminished suppressive capacity

IHSIHFSGHVFTVRK (listed as Homo sapiens) [SEQ ID NO: 2]
proliferation of CD4+ T cells and activated T effector T cells ([5]; 5, 10, 15, and 20 ug/ml, two donors): suppressed proliferation of CD4+ T cells and activated T effector T cells in a dose dependent manner
CD4+ T cell activation reduced by ([5]; Donor 096, with TT): 70%
CD4+ T cell activation reduced by ([5]; Donor 120, with TT): 50%
